Data set [1] in a line: body weight of ICR mice with transplanted S180 tumor. In kind it is in vivo. Here is the method:
(§1) 32 ICR mice, male, weight 18-20 g, were supplied by Sippr/Bk Laboratory Animals Ltd, certification: SCXK (shanghai) 2008-2016.
(§2) The ascites of two vigorous growing ICR mice with S180 ascites tumor was extracted under a sterile condition, diluted 6 times with saline water, axilla subcutaneously inoculated with a dosage of 0.2 ml per mouse. The mice were randomly divided into four groups the next day, 8 for each group.
(§3) The groups were blank control group, SIPI-601 60 mg/kg iv group (administered once every three days), SIPI-601 120 mg/kg iv group (administered once every six days), Oxaliplatin 9 mg/kg iv group (administered once every other day).
(§4) The mice were administered the second day after inoculation. After the treatment, the survived animals were euthanatized, the tumors were taken and weighed to calculate anti-tumor rate.

The test system of a further data set is transplanted S180 tumor. Nature of the data set: anti-tumor rate in ICR mice with transplanted S180 tumor. It is filed as in vivo. Here is the method: The model of ICR mice with transplanted 5180 sarcoma in vivo was used to determine the anticancer effect of the compound. Specific steps are as follows:
Samples: cis-3-hydroxy-acrylic acid diammine platinum (II), serial number: SIPI-601.
Positive control: Oxaliplatin for injection, Jiangsu Hengrui Medicine Co., Ltd, lot number: 13082811, 50 mg per bottle.
Samples: SIPI-601, which was dissolved by a 10% glucose injection.
Positive control: Oxaliplatin for injection, which was dissolved by a 10% glucose injection.
as §1
Tumor cell trains: two ICR mice with S180 ascites tumor, passage cultured by pharmacological office, Shanghai State Institute of Pharmaceutical Industry (SIPI).
as §2, §3, §4

Data set [2] concerns human poorly differentiated gastric cancer cell stain BGC-823. Nature of the data set: MTT cytotoxicity on human tumor cell strains in vitro. It is filed as cell-based. To be noted: BGC-823, MTT, 48 hours. The method, then: (§5) MTT method was employed to test the cytotoxic effect caused by the compound on human tumor cell stains in vitro. Specific steps are as follows:
(§6) The tumor cells (human poorly differentiated gastric cancer cell stain BGC-823, human breast cancer cell strain Bcap37, human oral cancer cell strain KB) was cultured in a 10% calf serum, inoculated into a 96-well plate (2×10^5 cells per well) at 37° C. in an incubator with 5% CO2. The cis-3-hydroxy-acrylic acid diammine platinum (II) was dissolved in DMSO to obtain a solution with a concentration of 10 mg/ml. The solution was diluted to the required concentration with a phosphate buffer, and then added into the wells of the 96-well plate respectively, each concentration was for two wells, 10 μl per well, therefore, each concentration has two parallel tests. DMSO was diluted accordingly in a gradient manner and added into the wells of the 96-well plate as controls.
(§7) After the 96-well plate was kept at 37° C. in the incubator with 5% CO2 for 48 hours, 20 μl 5 mg/ml MTT solution was added into per well. Then the 96-well plate were further kept for 3-4 hours in the incubator at the same temperature. 100 μl solvent was added into per well and the 96-well plate was kept warm in the incubator overnight to make the generated formazan crystals dissolve sufficiently. The light absorption value at 492 nm was determined.
(§8) A relative survival rate of cells was calculated according to the light absorption value after the treatment of the compound. The calculation formula is as follows: […]
(§9) The IC50 of the compound against each kind of tumor cells was calculated though software.

For data set [3], the system named is human oral cancer cell strain KB. Described as above. As to conditions: 48 hours. It is filed as cell-based. The method, then:
as §5, §6, §7, §8, §9

In data set [4] the test system is human breast cancer cell strain Bcap37. The data set is described as above. It is filed as cell-based. As to conditions: 48 hours. The method, then:
as §5, §6, §7, §8, §9

A short description of data set [5]: water-solubility at room temperature.
[6] abbreviates: 9 mg/kg iv, once every other day.
[7] abbreviates: 60 mg/kg iv, once every three days.
Where [8] appears, read: 120 mg/kg iv, once every six days.

Consider `O=C1[O][Pt]2([NH][C@@H]3CCCC[C@H]3[NH]2)[O]C1=O` [Oxaliplatin, reference compound], for which the “The final body weight after the removal of tumor” value in data set [1] (setting [6]) came to 19.92 g. In the data set with transplanted S180 tumor (setting [6]), this compound gave a The anti-tumor rate of 62.42%.

Turning to “cis-3-hydroxy-acrylic acid diammine platinum (II) [SIPI-601]”, the IC50 (as a rule, the concentration needed to halve the response being measured) in data set [2] is 2.28 µg/mL; in data set [3] it was 33.94 µg/mL; in data set [4] it was 21.58 µg/mL. In addition, the results for the “The final body weight after the removal of tumor” value in data set [1] (setting [7]) and in data set [1] (setting [8]) were 22.46 g and 20.34 g, respectively. Also, the water-solubility result in data set [5] is given as “greater than 25 mg/mL”. Further, the The anti-tumor rate with transplanted S180 tumor (setting [7]) came to 64.39%; in the data set with transplanted S180 tumor (setting [8]), 66.83%.

(Values after patent US9650403B2, “Platinum (II) compound, preparation method therefor, and pharmaceutical composition and application thereof” (SHANGHAI INSTITUTE OF PHARMACEUTICAL INDUSTRY, priority 2013, dated 2017).)
